Measurements taken from patent US20060110472A1, “Use of allicin as insect repellent and insecticide in agricultural crops” (priority 2002, published 2006).

Tests used:
[1] = test system: Fruit flies, Drosophila Melanogaster; assay: Egg laying of fruit flies on plates containing allicin (repellent activity); format: in vivo
Experimental: Fruit flies, Drosophila Melanogaster, were grown in a plastic container and allowed to lay eggs in laying bottles (6×4 cm) containing allicin (100 μl) in various concentrations (0-12 mM). Allicin was introduced to the egg-laying sites on a ring of Whatman (3 mm) paper placed at the periphery of the egg laying plate which was placed at the bottom of the bottle. A yeast paste (fly food) was applied in the middle of the plate. Female fruit flies (N=100) were introduced into the laying bottle and were allowed to lay eggs for 16 hours. At the end of the 16 hours, the number of eggs was counted in each plate. The total number of eggs laid by the flies was 1440. The repellent effect of allicin on the fruit fly was determined by measuring the number of laid eggs during the continuous exposure of the flies to the various concentrations of allicin. The results are shown in FIG. 1a as a percentage of laid eggs in the presence of each concentration of allicin in comparison with the number of eggs laid by flies in the absence of allicin (first column, left—100%). […] At the end of the 8 hours, the number of eggs was counted in each plate. […] The repellent effect of allicin on the fruit fly was determined by measuring the number of laid eggs in allicin-free plates for 8 hours after the 16-hour exposure of the flies to the various concentrations of allicin. […]

[2] = test system: hatched larvae of fruit fly; assay: Lethality of hatched larvae on egg-laying plates with allicin; format: in vivo, Drosophila Melanogaster; conditions: allicin stock 1-2 mg/ml added to egg-laying plates, about 200 eggs per plate
Experimental: In an additional experiment, lethality of 80-90% of the hatched larvae produced in the second phase of the fly life cycle was caused by addition of allicin (stock 1-2 mg/ml) to egg-laying plates containing about 200 eggs per plate (not shown).

[3] = test system: fruit flies that attack the persimmon trees; assay: Spraying of persimmon trees with allicin, repellent effect on fruit flies; format: in vivo, fruit fly; conditions: trees sprayed with water solution 0.1-0.2 g/l (0.5-1 mM) every second week, 12 weeks, 6 sessions, FIG. 2
Experimental: (§1) Persimmon trees (Oriental persimmon of the type “Fuyu”, 2.5-3 meters tall) in the Hasharon region, Israel, were sprayed with a water solution of allicin (0.1-0.2 g/l, 0.01-0.02% or 0.5-1 mM) every second week, during a 12-week period, for a total of 6 sessions. Spraying with allicin was started 2-3 weeks after persimmon fruit setting, when the fruits reached 1-2 cm in diameter. The spraying was performed in such a way as to wet the leaves and the fruits completely. No other insecticides or other treatments were used in parallel or at any point of the experiment. FIG. 2 is a photograph showing persimmon fruits from trees treated with allicin (left) and from untreated trees (right).

[4] = test system: Persimmon trees (Oriental persimmon of the type "Fuyu"); assay: Damage to leaves of persimmon trees after spraying with allicin; format: in vivo; conditions: water solution 0.1-0.2 g/l, 6 sprayings over 12 weeks
Experimental: as §1

ants = assay: Repellent effect of allicin on ants; format: in vivo
Experimental: Treatment of the locus of an ant colony with a water solution of allicin (1 mg/ml) prevented the ants from reentering the place for at least 3 days.

For `C=CCS[S+]([O-])CC=C` (stereo not shown) [allicin, thio-2-propene-1-sulfinic acid S-allyl ester], the “repellent activity, inhibition of egg laying by the flies (% of eggs laid vs no allicin)” value ([1]; 0-12 mM allicin (100 μl), 16 hours continuous exposure, FIG. 1a) was “dose-dependent”, the “inhibition of capability of the flies to lay eggs on allicin-free plates after exposure” value ([1]; 8 hours on allicin-free plates after 16 hours exposure to 0-12 mM allicin, FIG. 1b) was “significant inhibition effect” and the “lethality of hatched larvae” value [2] was 80-90%. The “repellent effect on fruit flies, appearance of persimmon fruits” value [3] was “repellent effect on fruit flies”, the “damage to leaves after spraying” value [4] was “no damage” and the “crossing of a treated line in the floor by ants” value (ants; water solution of allicin 1 mg/ml on a line in the floor, even after the solution dried off) was “prevented the crossing of the line by ants”. The “time ants were prevented from reentering the treated locus of the colony” value (ants; water solution of allicin 1 mg/ml on locus of an ant colony) was “at least 3 days”.
